ChEMBL document CHEMBL4354827, “Discovery of Novel, Potent, Brain-Permeable, and Orally Efficacious Positive Allosteric Modulator of α7 Nicotinic Acetylcholine Receptor [4-(5-(4-Chlorophenyl)-4-methyl-2-propionylthiophen-3-yl)benzenesulfonamide]: Structure-Activity Relationship and Preclinical Characterization” (J Med Chem, 2020)
pEC50: −log10 of the molar value.

Key:
[1] = tested on: Rattus norvegicus; test: Memory enhancement effect in time-delay induced Wistar rat model of amnesia assessed as exploration time for novel object in retention trial at 0.05 mg/kg, po for 7 days and measured on day 8 by novel object recognition test (reference value: 15.37 sec); assay type: functional
[2] = Unbound brain-to-plasma concentration ratio in Wistar rat at 10 mg/kg, po after 4 hrs by LC-MS/MS analysis; assay type: ADME, organism-based; details: read-out: K(p,uu,brain)
[3] = biological target: Cytochrome P450 2E1 (Homo sapiens, UniProt P05181); test: Inhibition of CYP2E1 (unknown origin) up to 10 uM; assay type: ADME
Cytochrome P450 2E1, sequence (P05181 whole entry): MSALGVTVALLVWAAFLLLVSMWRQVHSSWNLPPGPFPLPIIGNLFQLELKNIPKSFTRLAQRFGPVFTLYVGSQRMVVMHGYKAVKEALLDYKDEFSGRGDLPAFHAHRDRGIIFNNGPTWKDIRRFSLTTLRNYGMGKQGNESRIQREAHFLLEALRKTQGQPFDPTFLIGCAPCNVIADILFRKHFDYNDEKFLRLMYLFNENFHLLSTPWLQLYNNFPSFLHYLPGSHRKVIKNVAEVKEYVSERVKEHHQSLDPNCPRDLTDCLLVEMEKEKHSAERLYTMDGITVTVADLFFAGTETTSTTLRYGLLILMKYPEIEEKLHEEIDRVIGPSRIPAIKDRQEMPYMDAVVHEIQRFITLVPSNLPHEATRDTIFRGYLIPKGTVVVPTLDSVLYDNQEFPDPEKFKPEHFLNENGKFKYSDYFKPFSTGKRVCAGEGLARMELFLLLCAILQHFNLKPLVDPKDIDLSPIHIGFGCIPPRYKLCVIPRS

[4] = tested on: Rattus norvegicus; test: Memory enhancement effect in time-delay induced Wistar rat model of amnesia assessed as exploration time for familiar object in retention trial at 1 mg/kg, po administered as single dose and measured on day 9 by novel object recognition test (reference value: 13.05 sec); assay type: functional
[5] = Protein binding in rat plasma at 5 uM incubated for 16 hrs under shaking condition by LC/MS/MS based rapid equilibrium dialysis method; assay type: ADME, cell-free; details: read-out: PPB (converted)
[6] = Tmax in BALB/c mouse at 10 mg/kg, po after 0.25 to 144 hrs by LC-MS/MS analysis; assay type: ADME, organism-based; details: in vivo
[7] = Drug metabolism in mouse liver microsomes assessed as metabolic rate at 1 uM preincubated for 5 mins followed by NADPH addition after 30 mins by LC-MS/MS analysis; assay type: ADME, Microsome; details: 0.5 h
[8] = Cmax in BALB/c mouse at 10 mg/kg, po after 0.25 to 144 hrs by LC-MS/MS analysis; assay type: ADME, organism-based; set-up: dose 10 mg/kg, route oral; details: in vivo
[9] = tested on: Rattus norvegicus; test: Memory enhancement effect in scopolamine-induced Wistar rat model of amnesia assessed as exploration time for object1 in acquisition trial at 0.5 mg/kg, po administered as single dose and measured on day 8 by novel object recognition test (reference value: 16.11 sec); assay type: functional
[10] = Drug level in Wistar rat plasma at 0.15 mg/kg, po; assay type: ADME, organism-based; details: in vivo
[11] = Metabolic stability in mouse liver microsomes assessed as compound remaining at 1 uM preincubated for 5 mins followed by NADPH addition and measured after 30 mins by LC-MS/MS analysis; assay type: ADME, Microsome; details: read-out: Stability
[12] = biological target: Neuronal acetylcholine receptor subunit alpha-7 (Homo sapiens, UniProt P36544); test: Positive allosteric modulatory activity against alpha7 nAChR in human IMR-32 cells assessed as potentiation of PNU-282987-induced Ca2+ […] at by FLIPR assay; assay type: cell-based
Neuronal acetylcholine receptor subunit alpha-7, sequence (P36544 whole entry): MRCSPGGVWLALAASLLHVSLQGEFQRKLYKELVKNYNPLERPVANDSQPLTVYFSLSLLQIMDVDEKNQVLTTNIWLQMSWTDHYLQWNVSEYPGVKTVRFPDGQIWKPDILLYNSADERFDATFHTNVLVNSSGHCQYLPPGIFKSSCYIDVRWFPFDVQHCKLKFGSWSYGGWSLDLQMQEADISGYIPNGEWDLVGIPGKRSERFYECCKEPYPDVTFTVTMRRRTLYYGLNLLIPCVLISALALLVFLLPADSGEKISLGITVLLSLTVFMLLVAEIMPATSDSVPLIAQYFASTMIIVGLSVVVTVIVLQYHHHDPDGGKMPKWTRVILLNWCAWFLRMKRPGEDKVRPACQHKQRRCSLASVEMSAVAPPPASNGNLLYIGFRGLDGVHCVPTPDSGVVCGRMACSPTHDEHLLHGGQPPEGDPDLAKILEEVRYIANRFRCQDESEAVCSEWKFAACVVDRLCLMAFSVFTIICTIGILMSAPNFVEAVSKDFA

[13] = tested on: Rattus norvegicus; test: Memory enhancement effect in time-delay induced Wistar rat model of amnesia assessed as exploration time for familiar object at 1 mg/kg, po administered as single dose after acquisition trial by novel object recognition test (reference value: 10.6 sec); assay type: functional
[14] = biological target: T1, Cytochrome P450 2A6 (Homo sapiens, UniProt P11509); test: Inhibition of CYP2A6 (unknown origin) up to 10 uM; assay type: ADME
T1 sequence (P11509 whole entry): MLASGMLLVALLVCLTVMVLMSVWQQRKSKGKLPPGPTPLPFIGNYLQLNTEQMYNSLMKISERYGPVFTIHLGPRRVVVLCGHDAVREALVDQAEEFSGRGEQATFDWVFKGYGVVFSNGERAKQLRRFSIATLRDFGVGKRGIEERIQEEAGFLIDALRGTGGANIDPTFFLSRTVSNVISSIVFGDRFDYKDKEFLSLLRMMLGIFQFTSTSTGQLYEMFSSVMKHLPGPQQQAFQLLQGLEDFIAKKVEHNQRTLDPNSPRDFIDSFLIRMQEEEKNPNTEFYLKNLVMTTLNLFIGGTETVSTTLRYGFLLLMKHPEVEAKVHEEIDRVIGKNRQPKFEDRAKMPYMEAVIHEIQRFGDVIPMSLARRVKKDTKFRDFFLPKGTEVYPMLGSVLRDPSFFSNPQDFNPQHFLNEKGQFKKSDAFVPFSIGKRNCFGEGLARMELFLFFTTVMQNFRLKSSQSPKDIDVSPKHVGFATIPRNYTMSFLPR

[15] = tested on: Rattus norvegicus; test: Memory enhancement effect in time-delay induced Wistar rat model of amnesia assessed as increase in novel object discrimination at 3 mg/kg, po administered as single dose after acquisition trial by novel object recognition test (reference value: 0.08); assay type: functional
[16] = tested on: Rattus norvegicus; test: Improvement in social recognition time delay-induced Sprague-Dawley rat model of amnesia assessed as increase in reduction in social investigation time at 0.50 mg/kg, po for 7 days and measured on day 9 (reference value: -0.5%); assay type: functional; set-up: scale not given: the % may be the effect or the level left
[17] = Half life in Beagle dog at 1 mg/kg, iv after 0.083 to 144 hrs by LC-MS/MS analysis; assay type: ADME, organism-based, Canis lupus familiaris; details: in vivo
[18] = Half life in Beagle dog at 10 mg/kg, po after 0.25 to 144 hrs by LC-MS/MS analysis; assay type: ADME, organism-based, Canis lupus familiaris; details: in vivo
[19] = Clearance in Beagle dog at 1 mg/kg, iv after 0.083 to 144 hrs by LC-MS/MS analysis; assay type: ADME, organism-based, Canis lupus familiaris; details: in vivo
[20] = tested on: Rattus norvegicus; test: Memory enhancement effect in scopolamine-induced Wistar rat model of amnesia assessed as exploration time for object1 in acquisition trial at 0.15 mg/kg, po for 7 days and measured on day 8 by novel object recognition test (reference value: 16.11 sec); assay type: functional
[21] = Ratio of Cmax in brain to plasma in Wistar rat at 10 mg/kg, po after 144 hrs by LC-MS/MS analysis; assay type: ADME, organism-based
[22] = tested on: Rattus norvegicus; test: Memory enhancement effect in time-delay induced Wistar rat model of amnesia assessed as exploration time for object1 in acquisition trial at 0.05 mg/kg, po for 7 days and measured on day 8 by novel object recognition test (reference value: 13.73 sec); assay type: functional
[23] = tested on: Rattus norvegicus; test: Memory enhancement effect in time-delay induced Wistar rat model of amnesia assessed as increase in discrimination index at 0.5 mg/kg, po for 7 days and measured on day 8 by novel object recognition test (reference value: 0.12); assay type: functional
[24] = tested on: Rattus norvegicus; test: Memory enhancement effect in time-delay induced Wistar rat model of amnesia assessed as exploration time for novel object at 3 mg/kg, po administered as single dose after acquisition trial by novel object recognition test (reference value: 12.81 sec); assay type: functional
[25] = Drug level in scopolamine-induced Sprague-Dawley rat brain at 0.15 mg/kg, po for 7 days; assay type: ADME, organism-based; details: read-out: Drug uptake
[26] = tested on: Rattus norvegicus; test: Memory enhancement effect in scopolamine-induced Wistar rat model of amnesia assessed as increase in novel object discrimination index at 0.15 mg/kg, po administered as single dose and measured on day 9 by novel object recognition test (reference value: 0.21); assay type: functional
[27] = Drug level in scopolamine-induced Sprague-Dawley rat plasma at 0.15 mg/kg, po for 7 days; assay type: ADME, organism-based
[28] = Protein binding in human plasma at 5 uM incubated for 16 hrs under shaking condition by LC/MS/MS based rapid equilibrium dialysis method; assay type: ADME, cell-free; details: read-out: PPB (converted)
[29] = tested on: Rattus norvegicus; test: Memory enhancement effect in scopolamine-induced Wistar rat model of amnesia assessed as exploration time for object2 in acquisition trial at 0.05 mg/kg, po for 7 days and measured on day 8 by novel object recognition test (reference value: 15.63 sec); assay type: functional
[30] = tested on: Rattus norvegicus; test: Improvement in social recognition time delay-induced Sprague-Dawley rat model of amnesia assessed as increase in reduction in social investigation time at 0.15 mg/kg, po for 7 days and measured on day 9 (reference value: -0.5%); assay type: functional; set-up: scale not given: the % may be the effect or the level left

## CCC(=O)c1sc(-c2ccc(Cl)cc2)c(C)c1-c1ccc(S(N)(=O)=O)cc1
[1]
  Time: 13.91 s
[2]
  Kp uu at 4 h: 1.29
[3]
  inhibition (INH): Not Active
[4]
  Time: 10.49 s
[5]
  fraction unbound at 16 h, 5 µM: 0.0058
[6]
  Tmax: 4 h
[7]
  Drug metabolism: 0.01 nmol/min/mg
[8]
  Cmax: 3.4 µM
[9]
  Time: 13.94 s
[10]
  concentration: 0.07 µM
[11]
  remaining at 0.5 h, 1 µM: 96%
[12]
  pEC50: 6.49
[13]
  Time: 11.94 s
[14]
  inhibition (INH): Not Active
[15]
  Activity_index: 0.5
[16]
  Activity: 46.16%
[17]
  half-life: 88 h
[18]
  half-life: 54 h
[19]
  clearance: 0.042 L/h/kg
[20]
  Time: 14.08 s
[21]
  Kp at 144 h: 10
[22]
  Time: 15.2 s
[23]
  Activity_index: 0.58
[24]
  Time: 18.61 s
[25]
  concentration at 168 h: 0.53 µM
[26]
  Activity_index: 0.5
[27]
  concentration at 168 h: 0.18 µM
[28]
  fraction unbound at 16 h, 5 µM: 0.0015
[29]
  Time: 18.31 s
[30]
  Activity: 43.63%
